Drawing on patent publication US9790169B2, “IDO inhibitors” (BRISTOL-MYERS SQUIBB COMPANY, priority 2015, dated 2017), this text covers IC50 for 27 compounds.

pIC50: −log10 of the molar value.

This test addresses human IDO1 (Homo sapiens, UniProt P14902). The test is described as follows: Assessment of human IDO-1 inhibitory activity in Hela cells (Interferon-gamma stimulated HeLa cells, Ehrlich reagent, absorbance 490 nm). In kind it is cell-based. Set-up: endogenous in cells; host or cells: HeLa cells stimulated with interferon-gamma. Conditions: Hela Human IDO-1 cellular assay. An outline of the steps: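 HeLa cells pre-incubated with compound 1 h at 37 °C, then stimulated with human IFN-γ (10 ng/ml final) or murine IFN-γ (5 ng/ml final) for 18 h. Kynurenine read with Ehrlich reagent at 490 nm after TCA (3%) and 50 °C treatment; IC50 normalized to unstimulated (100%) and IFN-γ-only (0%) wells.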

human IDO1, sequence (P14902 whole entry): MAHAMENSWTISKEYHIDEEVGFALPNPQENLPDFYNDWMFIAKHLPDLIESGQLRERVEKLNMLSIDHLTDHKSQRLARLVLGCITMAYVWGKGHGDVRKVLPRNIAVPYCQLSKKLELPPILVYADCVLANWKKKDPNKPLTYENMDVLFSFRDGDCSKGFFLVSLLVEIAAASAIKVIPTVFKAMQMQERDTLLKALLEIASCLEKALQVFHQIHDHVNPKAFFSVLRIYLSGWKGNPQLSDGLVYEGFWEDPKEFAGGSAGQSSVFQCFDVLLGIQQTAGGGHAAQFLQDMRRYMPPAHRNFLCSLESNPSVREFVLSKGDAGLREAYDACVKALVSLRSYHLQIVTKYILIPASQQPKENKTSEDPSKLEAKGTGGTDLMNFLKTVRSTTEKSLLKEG

On to `CCN(c1ccc(C(C)(C)CC(=O)O)cc1Nc1ccc(C#N)cc1)C1CCS(=O)(=O)CC1` [Example 178, 3-(3-((4-cyanophenyl)amino)-4-((1,1-dioxidotetrahydro-2H-thiopyran-4-yl)(ethyl)amino)phenyl)-3-melhylbutanoic acid], for which the pIC50 – broadly, −log10 of the IC50, conventionally taken in molar units – is over 7.30. `CCN(c1ccc(C(C)(C)CC(=O)O)cc1Nc1ccc2c(c1)OC(F)(F)O2)C1CCS(=O)(=O)CC1` [Example 179, 3-(3-((2,2-difluorobenzo[d][1,3]dioxol-5-yl)amino)-4-((1,1-dioxidotetrahydro-2H-thiopyran-4-yl)(ethyl)amino)phenyl)-3-methylbutanoic acid] showed a pIC50 of over 8.30. To `CCN(c1ccc(C(C)(C)CC(=O)O)cc1Nc1ccc(Cl)cc1)C1CCS(=O)(=O)CC1` [Example 180, 3-(3-((4-chlorophenyl)amino)-4-((1,1-dioxidotetrahydro-2H-thiopyran-4-yl)(ethyl)amino)phenyl)-3-methylbutanoic acid] belongs over 8.30; to `CCCN(c1ccc(C(C)(C)CC(=O)O)cc1Nc1ccc(C#N)cc1)C1CCS(=O)(=O)CC1` [Example 187, 3-(3-((4-Cyanophenyl)amino)-4-((1,1-dioxidotetrahydro-2H-thiopyran-4-yl)(propyl)amino)phenyl)-3-methylbutanoic acid], over 7.30; to `CCCN(c1ccc(C(C)(C)CC(=O)O)cc1Nc1cnc(OCC)nc1)C1CCS(=O)(=O)CC1` [Example 188, 3-(4-((1,1-dioxidotetrahydro-2H-thiopyran-4-yl)(propyl)amino)-3-((2-ethoxypyrimidin-5-yl)amino)phenyl)-3-methylbutanoic acid], under 7.30. With `CCCN(c1ccc(C(C)(C)CC(=O)O)cc1Nc1cnc(OC)nc1)C1CCS(=O)(=O)CC1` [Example 189, 3-(4-((1,1-dioxidotetrahydro-2H-thiopyran-4-yl)(propyl)amino)-3-((2-methoxypyrimidin-5-yl)amino)phenyl)-3-methylbutanoic acid] the figure was under 7.30; with `CCCN(c1ccc(C(C)(C)CC(=O)O)cc1NC(=O)Nc1ccc(C#N)cc1)C1CCS(=O)(=O)CC1` [Example 190, 3-(3-(3-(4-Cyanophenyl)ureido)-4-((1,1-dioxidotetrahydro-2H-thiopyran-4-yl)(propyl)amino)phenyl)-3-methylbutanoic acid], under 7.30; with `CCN(c1ccc([C@H](COC)CC(=O)O)cc1Nc1ccc(C(F)(F)F)cc1)C1CCOCC1` [Example 401], over 8.30. In turn, `CCOc1ncc(Nc2cc([C@H](CC(=O)O)C(F)(F)F)ccc2N(CC)C2CCOCC2)cn1` [Example 598, (S)-3-(3-((2-Ethoxypyrimidin-5-yl)amino)-4-(ethyl(tetrahydro-2H-pyran-4-yl)amino)phenyl)-4,4,4-trifluorobutanoic acid] had a pIC50 of over 7.30. In the case of `CCN(c1ccc([C@H](CC(=O)O)C(F)(F)F)cc1Nc1cnc(OC)nc1)C1CCOCC1` [Example 599, (S)-3-(4-(ethyl(tetrahydro-2H-pyran-4-yl)amino)-3-((2-methoxypyrimidin-5-yl)amino)phenyl)-4,4,4-trifluorobutanoic acid], the pIC50 was over 7.30.

With `CCOc1ncc(Nc2cc([C@@H](CC(=O)O)C(F)(F)F)ccc2N(CC)C2CCOCC2)cn1` [Example 600, (R)-3-(3-((2-Ethoxypyrimidin-5-yl)amino)-4-(ethyl(tetrahydro-2H-pyran-4-yl)amino)phenyl)-4,4,4-trifluorobutanoic acid], the pIC50 is over 8.30. For the compound `CCOc1ncc(Nc2cc([C@H](CC)CNS(=O)(=O)CC)ccc2N(CC)C2CCOCC2)cn1` [Example 1325, (S)-N-(2-(3-((2-Ethoxypyrimidin-5-yl)amino)-4-(ethyl(tetrahydro-2H-pyran-4-yl)amino)phenyl)butyl)ethanesulfonamide], the pIC50 is over 7.30. With `CCOc1ncc(Nc2cc([C@H](CC)CNS(=O)(=O)c3c(C)noc3C)ccc2N(CC)C2CCOCC2)cn1` [Example 1328, (S)-N-(2-(3-((2-ethoxypyrimidin-5-yl)amino)-4-(ethyl(tetrahydro-2H-pyran-4-yl)amino)phenyl)butyl)-3,5-dimethylisoxazole-4-sulfonamide] the figure was under 7.30; with `CCOc1ncc(Nc2cc([C@H](CC)CNS(=O)(=O)C(F)(F)F)ccc2N(CC)C2CCOCC2)cn1` [Example 1329, (S)-N-(2-(3-((2-ethoxypyrimidin-5-yl)amino)-4-(ethyl(tetrahydro-2H-pyran-4-yl)amino)phenyl)butyl)-1,1,1-trifluoromethanesulfonamide], over 8.30; with `CCOc1ncc(Nc2cc([C@H](CC)CC(N)=O)ccc2N(CC)C2CCOCC2)cn1` [Example 1332, (R)-3-(3-((2-Ethoxypyrimidin-5-yl)amino)-4-(ethyl(tetrahydro-2H-pyran-4-yl)amino)phenyl)pentanamide], under 7.30.

`CCOc1ncc(Nc2cc([C@H](CC)CC#N)ccc2N(CC)C2CCOCC2)cn1` [Example 1333, (R)-3-(3-((2-Ethoxypyrimidin-5-yl)amino)-4-(ethyl(tetrahydro-2H-pyran-4-yl)amino)phenyl)pentanenitrile] gave a pIC50 of under 7.30. Turning to `CCOc1ncc(Nc2cc([C@H](CC)Cc3cnco3)ccc2N(CC)C2CCOCC2)cn1` [Example 1335, (R)-N2-(2-Ethoxypyrimidin-5-yl)-N1-ethyl-4-(1-(oxazol-5-yl)butan-2-yl)-N1-(tetrahydro-2H-pyran-4-yl)benzene-1,2-diamine], the negative-log IC50 (pIC50) was under 7.30. To `CCOc1ncc(Nc2cc([C@H](CC)Cc3ncno3)ccc2N(CC)C2CCOCC2)cn1` [Example 1337, (R)-4-(1-(1,2,4-Oxadiazol-5-yl)butan-2-yl)-N2-(2-ethoxypyrimidin-5-yl)-N1-ethyl-N1-(tetrahydro-2H-pyran-4-yl)benzene-1,2-diamine] belongs over 7.30; to `CCOc1ncc(Nc2cc([C@H](CC)Cc3nnc[nH]3)ccc2N(CC)C2CCOCC2)cn1` [Example 1338, (R)-4-(1-(4H-1,2,4-Triazol-3-yl)butan-2-yl)-N2-(2-ethoxypyrimidin-5-yl)-N1-ethyl-N1-(tetrahydro-2H-pyran-4-yl)benzene-1,2-diamine], over 7.30; to `CCOc1ncc(Nc2cc([C@H](CC)Cc3nnn[nH]3)ccc2N(CC)C2CCOCC2)cn1` [Example 1339, (R)-4-(1-(1H-Tetrazol-5-yl)butan-2-yl)-N2-(2-ethoxypyrimidin-5-yl)-N1-ethyl-N1-(tetrahydro-2H-pyran-4-yl)benzene-1,2-diamine], over 8.30. Consider `CCN(c1ccc([C@H](CNS(=O)(=O)C(F)(F)F)COC)cc1Nc1ccc(C#N)cc1)C1CCOCC1` [Example 1342, (R)-N-(2-(3-((4-cyanophenyl)amino)-4-(ethyl(tetrahydro-2H-pyran-4-yl)amino)phenyl)-3-methoxypropyl)-1,1,1-trifluoromethanesulfonamide], for which the negative logarithm of the IC50 (pIC50) was over 7.30. With `CCOc1ncc(Nc2cc([C@H](CC)CC(=O)Nc3ncco3)ccc2N(CC)C2CCOCC2)cn1` [Example 1346, (R)-3-(3-((2-Ethoxypyrimidin-5-yl)amino)-4-(ethyl(tetrahydro-2H-pyran-4-yl)amino)phenyl)-N-(oxazol-2-yl)pentanamide] the figure was over 7.30. With `CCOc1ncc(Nc2cc([C@@H](CC)CC(=O)O)ccc2N2C3CCC2CC(c2ccc(F)cc2)C3)cn1` (stereo partly drawn) [Example 1360, (S)-3-(3-((2-Ethoxypyrimidin-5-yl)amino)-4-(3-(4-fluorophenyl)-8-azabicyclo[3.2.1]octan-8-yl)phenyl)pentanoic acid] the figure was over 8.30; with `CCNC(=O)NC[C@@H](CC)c1ccc(N(CC)C2CCOCC2)c(Nc2cnc(OCC)nc2)c1` [Example 1366, (S)-1-(2-(3-((2-Ethoxypyrimidin-5-yl)amino)-4-(ethyl(tetrahydro-2H-pyran-4-yl)amino)phenyl)butyl)-3-ethylurea], under 7.30.

Regarding “(R)-3-(3-((4-chlorophenyl)amino)-4-((1,1-dioxidotetrahydro-2H- thiopyran-4-yl)(ethyl)amino) phenyl)-4-isopropoxybutanoic acid [Example 330]”, the negative logarithm of the IC50 (pIC50) is over 8.30. As to “(R)-3-(4-((1,1-dioxidotetrahydro-2H-thiopyran-4-yl)(ethyl)amino)- 3-((2-ethoxypyrimidin-5- yl)amino)phenyl)-4- isopropoxybutanoic acid [Example 333]”, the pIC50 was under 7.30. “(R)-3-(4-((1,1-dioxidotetrahydro-2H-thiopyran-4-yl)(ethyl)amino)- 3-((2-methoxypyrimidin-5- yl)amino)phenyl)-4- isopropoxybutanoic acid [Example 332]” showed a pIC50 of under 7.30.
